For assay [1], the target named is D2 receptors. Briefly: D2 receptor binding (displacement of 0.5 nM 3H-YM 09151-2). More on the design: species or system African Green monkey. The following applies: pellets of COS cells with recombinant D2, nonspecific binding with 1 mM spiperone. On the procedure: (§1) Assay for D2 and D3 Receptor Binding Activity
(§2) Pellets of COS cells containing recombinantly produced D2 or D3 receptors from African Green monkey were used for the assays. The sample is homogenized in 100 volumes (w/vol) of 0.05 M Tris HCl buffer at 4° C. and pH 7.4. The sample is then centrifuged at 30,000 ×g and resuspended and rehomogenized. The sample is then centrifuged as described and the final tissue sample is frozen until use. The tissue is resuspended 1:20 (wt/vol) in 0.05 M Tris HCl buffer containing 100 mM NaCl.
The binding characteristics of representative compounds of the invention for D2 and D3 receptor subtypes are shown in Table 2 for rat striatal homogenates.

Assay [2] has as its target T1, D3 receptors (Chlorocebus aethiops, UniProt P52703).
T1 construct: expressed in transfected cells; host or cells: COS cells
The assay can be described thus: D3 receptor binding (displacement of 0.5 nM 3H-YM 09151-2). On the set-up: species or system African Green monkey. Particulars: pellets of COS cells with recombinant D3, nonspecific binding with 1 mM spiperone. On the procedure: as §1, §2
Incubations are carried out at 48° C. and contain 0.4 ml of tissue sample, 0.5 nM ^3 H-YM 09151-2 and the compound of interest in a total incubation of 1.0 ml. Nonspecific binding is defined as that binding found in the presence of […] spiperone; without further additions, nonspecific binding is less than 20% of total binding. The binding characteristics of representative compounds of the invention for D2 and D3 receptor subtypes are shown in Table 2 for rat striatal homogenates.

pKi: −log10 of the molar value. Where a name gives a salt, the structure may show the parent alone.

We go through three compounds from US5922879A, “N-aminoalkyl-2-anthraquinonecarboxamides: new dopamine receptor subtype specific ligands” (Neurogen Corporation, priority 1997, dated 1999).

T1 sequence (P52703 whole entry): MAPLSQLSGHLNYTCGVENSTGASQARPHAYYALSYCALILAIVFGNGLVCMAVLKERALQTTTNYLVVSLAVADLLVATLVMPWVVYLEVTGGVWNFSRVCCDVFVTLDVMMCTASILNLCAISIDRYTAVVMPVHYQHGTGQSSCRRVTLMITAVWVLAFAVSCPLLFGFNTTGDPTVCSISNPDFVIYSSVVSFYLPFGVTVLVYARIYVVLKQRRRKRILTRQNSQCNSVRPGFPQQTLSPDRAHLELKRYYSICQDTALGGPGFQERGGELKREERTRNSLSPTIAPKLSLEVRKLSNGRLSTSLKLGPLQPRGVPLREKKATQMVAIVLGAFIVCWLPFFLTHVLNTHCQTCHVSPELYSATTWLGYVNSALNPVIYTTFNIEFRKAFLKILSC

Consider `O=C(NCCCCN1CCN(c2cccc(Cl)c2Cl)CC1)c1ccc2c(c1)C(=O)c1ccccc1C2=O` [Compound 1, N-(1-{4-[4-(2,3-Dichlorophenyl)piperazin-1-yl]}butyl)-2anthraquinonecarboxamide hydrochloride], for which the pKi is 6.81 in assay [1] and 8.40 in assay [2].
Regarding `Cc1c(Cl)cccc1N1CCN(CCCCNC(=O)c2ccc3c(c2)C(=O)c2ccccc2C3=O)CC1` [Compound 4, N-(1-{4-[4-(2-Methyl-3-chlorophenyl)piperazin-1-yl]}butyl)-2-anthraquinonecarboxamide hydrochloride], the values for the pKi in assay [1] and in assay [2] were 7.21 and 8.70, respectively.
As for “N-(1-{4-[4(8-Quinolinyl)piperazin-1-yl]}butyl)-2-anthraquinonecarboxamide hydrochloride [Compound 6]”, in assay [1], the pKi was 7.35.

The term pKi denotes the negative decadic logarithm of the Ki, by convention in mol/L.
